Source: patent publication US20250120961A1, “P53 MODULATORS” (Nested Therapeutics, Inc., priority 2023, published 2025)

Biological target: His-tagged p53-Y220C DNA binding domain (Homo sapiens, UniProt P04637, Y220C)
Assay: Biochemical p53-Y220C and DNA binding assay (HTRF)
Details: bound printed in the heading for the reference compound; read-out: HTRF IP
How it was run: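 DBD (aa 94-312, 100 nM) mixed with compound and biotinylated consensus dsDNA (200 nM) in DPBS/20 mM NaCl/0.5% BSA, overnight at 4 °C, then 60 min at 27-29 °C; anti-His Tb/streptavidin-d2 HTRF read. Activation normalized to reference compound (500%) and DMSO (0%); 10-point curve, inflection point reported.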

| Structure (SMILES) | EC50 [nM] |
| --- | --- |
| CN1CC[C@@H](Nc2cccc3c2cc(-c2noc(CNC(=O)c4cnn(C(C)(C)C)c4)n2)n3CC(F)(F)F)[C@@H](F)C1 [Reference Compound 1, reference compound] | < 100 |

Same assay, conditions: inflection point of 10 points dose titration, 4 parameter curve fit; p53-Y220C DBD 100 nM, biotinylated dsDNA 200 nM, 27 to 29° C.; read-out: HTRF IP

| Structure (SMILES) | EC50 [nM] |
| --- | --- |
| CN1CC[C@@H](Nc2cccc3c(CC(F)(F)F)c(/C=C/CNS(C)(=O)=O)sc23)[C@@H](F)C1 [Example 6-3, N-((E)-3-(7-(((3S,4R)-3-fluoro-1-methylpiperidin-4-yl)amino)-3-(2,2,2-trifluoroethyl)benzo[b]thiophen-2-yl)allyl)methanesulfonamide] | 100 to 1000 |
| COC(=O)NC/C=C/c1sc2c(N[C@@H]3CCN(C)C[C@@H]3F)cccc2c1CC(F)(F)F [Example 6-4, methyl ((E)-3-(7-(((3S,4R)-3-fluoro-1-methylpiperidin-4 yl)amino)-3-(2,2,2-trifluoroethyl)benzo[b]thiophen-2-yl)allyl)carbamate] | 100 to 1000 |
| CN1CC[C@@H](Nc2cccc3c(CC(F)(F)F)c(/C=C/CNc4cccnc4)sc23)[C@@H](F)C1 [Example 7-1, N-((E)-3-(7-(((3S,4R)-3-fluoro-1-methylpiperidin-4-yl)amino)-3-(2,2,2-trifluoroethyl)benzo[b]thiophen-2-yl)allyl)pyridin-3-amine] | 100 to 1000 |
| COc1cc(S(C)(=O)=O)ccc1NC/C=C/c1sc2c(N[C@@H]3CCN(C)C[C@@H]3F)cccc2c1CC(F)(F)F [Example 7-2, (3S,4R)-3-fluoro-N-(2-((E)-3-((2-methoxy-4-(methylsulfonyl)phenyl)amino)prop-1-en-1-yl)-3-(2,2,2-trifluoroethyl)benzo[b]thiophen-7-yl)-1-methylpiperidin-4-amine] | < 100 |
| CN1CC[C@@H](Nc2cccc3c2cc(-c2noc(CNC(=O)c4cnn(C(C)(C)C)c4)n2)n3CC(F)(F)F)[C@@H](F)C1 [Reference Compound 1, reference compound] | < 100 |
